In patent publication US8128948B1, “Compositions and methods for attracting Anastrepha species” (The United States of America as represented by the …, priority 2007, dated 2012):
Values belong to the molecule of their own block, whether it stands above or below them.

Experiments:
Type in all cases: physicochemical
[1] = Hydrolysis of the dehydration analog; conditions: for distribution of products (rel. % of loss; x±s; n=6): hydrolysis of the dehydration analog, 3 day, pH 5.5, 35° C.
[2] = 1H-NMR monitored hydrolysis of suspensolide; conditions: 36 μL acetonitrile-d3 + 4 μl D2O; 27° C.
Procedure: Experiments were performed in a 2.0 mm capillary at 27° C. using a Bruker Avance 500 Console, Magnex 11.75 T/54 mm Magnet, and a 2.5 mm TXI probe (non spun). Spectra (64 scans) were acquired with 2.5 acquisition time and processed with ½ Hz line broadening.
Results and Discussion: Pentane extracts of male salivary glands that were added to water (pH 5.5) and rapidly stirred for 5 min at 25° C. yielded products within both phases that matched those obtained from pentane extraction of crops and oral secretions (FIG. 5). ^1H-Nuclear Magnetic Resonance (NMR) spectroscopy was then employed to directly observe the hydrolysis; the original vinyl and methyl proton signals disappeared over 3 h after a 4 μL addition of D2O to suspensolide in 36 μL acetonitrile-d3 (FIG. 6). In comparison, the loss of suspensolide in batch hydrolysis studies occurred much more rapidly (<2 min) over pH 3-10.

[3] = Batch hydrolysis of suspensolide in aqueous buffers
Procedure: Buffers at 25° C. were transferred (1 mL) to 9-mm amber crimp-top (Teflon®-sealed) 2-mL GC vials. Suspensolide in anhydrous acetonitrile or methanol (50 μL) was added to afford initial aqueous concentrations of 0.9 mM and the solution was rapidly mixed for 10 s on a vortex Genie® mixer. Aqueous samples (10 μL) were removed with a 25-μL syringe and combined with 2 μL ACN containing 6 μg (+)-sclareolide as an external standard for HPLC.
GC was used to quantify lactones at the conclusion of each experiment. Hexane (1 mL), containing […] of tetradecane as an internal standard, was added to the vials and extractable analytes were removed from the water by rapidly mixing for 2 min on a vortex Genie® mixer. Emulsions were broken with NaCl, after which the hexane layer was transferred to vials for analysis by GC. The remaining solution was concentrated to dryness via Speed Vac® and dissolved in a methanolic solution of diazomethane. Extraction with pentane and subsequently H2O (0.5 mL each) yielded methyl esters amenable to GC within the organic phase. Initial suspensolide concentrations were measured (quadruplicate) via analogous introduction into 1 mL hexane+internal standard.

Molecule: C=C[C@@]1(C)CCC[C@]2(C)OC(=O)C[C@@H]12 [anastrephin, reference compound]
distribution of products (rel. % of loss; x±s; n=6) [1]: 17.3±4.2%

Molecule: C=CC1(C)CCCC(C)=C1CC(=O)O (stereo not shown) [dehydration analog, 2,6-dimethyl-6-vinyl-cyclohexeneacetic acid]
loss on hydrolysis ([1]; 3 day time course, pH 5.5 and 35° C.): ~15%

Molecule: γ-hydroxy acid of anastrephin [anastrephin γ-hydroxy acid]
distribution of products (rel. % of loss; x±s; n=6) [1]: 38.6±5.1%

Molecule: γ-hydroxy acid of epianastrephin [epianastrephin γ-hydroxy acid]
distribution of products (rel. % of loss; x±s; n=6) [1]: 3.6±2.3%

Results, then the molecule that gave them:

distribution of products (rel. % of loss; x±s; n=6) [1]: 1.7±1.2%
Molecule: C=CC1(C)CCCC2(C)OC(=O)CC12 (stereo not shown) [epianastrephin, reference compound]

time over which suspensolide was hydrolyzed (1H-NMR) [2]: ~3 h
level of 7a-epimer “cis-fused” equivalents among hydrolysis products ([3]; FIG. 4): < 5%
epianastrephin to anastrephin ratio of γ-hydroxy acids formed by hydrolysis ([3]; in 18OH2 at pH 5, FIG. 13): ~2.5
time for loss of suspensolide in batch hydrolysis ([3]; over pH 3-10): < 2 min
time for hydrolysis to product distribution III>II>>IV>>>I ([3]; pH 5-6 and 25° C.): < 2 min
epianastrephin to anastrephin product ratio of hydrolysis ([3]; pathways II and III, FIG. 4): ~2.5
Molecule: C/C1=C/COC(=O)C/C=C(/C)CCC1 [suspensolide, (3E,8E)-suspensolide]

distribution of products (rel. % of loss; x±s; n=6) [1]: 5.8±4.2%
Molecule: C=CC1(C)CCCC2(C)OC(=O)CC12 (stereo not drawn) [“cis-fused” anastrephin]

distribution of products (rel. % of loss; x±s; n=6) [1]: 1.1±0.5%
Molecule: C=CC1(C)CCCC2(C)OC(=O)CC12 (stereo not drawn) [“cis-fused” epianastrephin]
